Assay results reported in patent publication US6737383B1, “Herbicidal oxadiazolidines” (priority 1999, dated 2004).

How the values were obtained:
[1] = test system: cocklebur; assay: Test B pre/postemergence cocklebur; format: in vivo, Xanthium strumarium
In short: (§1)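 Test chemicals in a non-phytotoxic solvent mixture with surfactant were sprayed preemergence onto planted seeds and postemergence onto plants 2 to 18 cm tall (1- to 4-leaf stage). After twelve to sixteen days in a greenhouse, injury was visually rated against untreated controls from 0 (no effect) to 10 (complete control).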

[2] = test system: smallflower flatsedge; assay: Test B flood test smallflower flatsedge; format: in vivo, Cyperus difformis
In short: (§2)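 Read-out is a visual response score from 0 (no effect) to 10 (complete control), assigned by comparison with untreated controls. Treatment was applied at the 2-leaf stage, and plants stayed in the greenhouse for twelve to sixteen days before scoring.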

[3] = test system: wheat; assay: Test B pre/postemergence wheat; format: in vivo, Triticum aestivum
In short: as §1

[4] = test system: crabgrass; assay: Test B pre/postemergence crabgrass; format: in vivo, Digitaria sanguinalis
In short: as §1

[5] = test system: purple nutsedge; assay: Test B pre/postemergence purple nutsedge; format: in vivo, Cyperus rotundus
In short: as §1

[6] = test system: duck salad; assay: Test B flood test duck salad; format: in vivo, Heteranthera limosa
In short: as §2

[7] = test system: velvetleaf; assay: Test B pre/postemergence velvetleaf; format: in vivo, Abutilon theophrasti
In short: as §1

[8] = test system: pigweed; assay: Test B pre/postemergence pigweed; format: in vivo, Amaranthus retroflexus
In short: as §1

[9] = test system: rape; assay: Test B pre/postemergence rape; format: in vivo, Brassica napus
In short: as §1

[10] = test system: wild oat; assay: Test B pre/postemergence wild oat; format: in vivo, Avena fatua
In short: as §1

[11] = test system: morningglory; assay: Test B pre/postemergence morningglory; format: in vivo, Ipomoea hederacea
In short: as §1

[12] = test system: bedstraw; assay: Test B pre/postemergence bedstraw; format: in vivo, Galium aparine
In short: as §1

[13] = test system: giant foxtail; assay: Test B pre/postemergence giant foxtail; format: in vivo, Setaria faberii
In short: as §1

[14] = test system: rice; assay: Test B flood test rice; format: in vivo, Oryza sativa
In short: as §2

[15] = test system: soybean; assay: Test B pre/postemergence soybean; format: in vivo, Glycine max
In short: as §1

[16] = test system: corn; assay: Test B pre/postemergence corn; format: in vivo, Zea mays
In short: as §1

[17] = Postemergence, Rate 125 g/ha, scale of 0 to 10 where 0 is no effect and 10 is complete control
[18] = Preemergence, Rate 62 g/ha, scale of 0 to 10 where 0 is no effect and 10 is complete control
[19] = Preemergence, Rate 125 g/ha, 0 is no effect, 10 is complete control
[20] = Preemergence, Rate 250 g/ha, scale 0 to 10, 0 is no effect, 10 is complete control
[21] = Preemergence, Rate 500 g/ha, scale 0 to 10 (0 no effect, 10 complete control)
[22] = Rate 62 g/ha, Postemergence, scale of 0 to 10 where 0 is no effect and 10 is complete control
[23] = Rate 250 g/ha, Postemergence, scale 0 to 10, 0 is no effect, 10 is complete control
[24] = Rate 500 g/ha, Postemergence, scale 0 to 10
[25] = Postemergence (flood test species), Rate 125 g/ha, scale of 0 to 10 where 0 is no effect and 10 is complete control
[26] = Rate 62 g/ha, Postemergence section, flood test species, scale of 0 to 10 where 0 is no effect and 10 is complete control
[27] = Rate 250 g/ha, Postemergence (flood test), scale 0 to 10, 0 is no effect, 10 is complete control
[28] = Rate 500 g/ha, listed under Postemergence (flood test species), scale 0 to 10

Cc1ccccc1-n1c(=O)on(C(=O)N(c2cccc(F)c2F)C(C)C)c1=O [Compound 171]
Cocklebur plant response rating [1, 17]: 0 | Cocklebur plant response rating [1, 18]: 0 | Cocklebur plant response rating (0 to 10 scale) [1, 19]: 0 | Cocklebur plant response rating [1, 20]: 0 | Cocklebur plant response rating [1, 21]: 0 | Cocklebur plant response rating [1, 22]: 0 | Plant response rating, Cocklebur [1, 23]: 3 | Cocklebur plant response rating [1, 24]: 3 | S. Flatsedge plant response rating [2, 25]: 0 | S. Flatsedge plant response rating [2, 26]: 0 | Plant response rating, S. Flatsedge [2, 27]: 0 | S. Flatsedge plant response rating [2, 28]: 0 | Wheat plant response rating [3, 18]: 0 | Wheat plant response rating (0 to 10 scale) [3, 19]: 0 | Wheat plant response rating [3, 20]: 0 | Wheat plant response rating [3, 21]: 0 | Plant response rating, Wheat [3, 23]: 0 | Wheat plant response rating [3, 24]: 0 | Crabgrass plant response rating [4, 17]: 0 | Crabgrass plant response rating [4, 18]: 2 | Crabgrass plant response rating (0 to 10 scale) [4, 19]: 7 | Crabgrass plant response rating [4, 20]: 10 | Crabgrass plant response rating [4, 21]: 10 | Crabgrass plant response rating [4, 22]: 0 | Plant response rating, Crabgrass [4, 23]: 2 | Crabgrass plant response rating [4, 24]: 7 | Nutsedge plant response rating [5, 17]: 0 | Nutsedge plant response rating [5, 18]: 0 | Nutsedge plant response rating (0 to 10 scale) [5, 19]: 0 | Nutsedge plant response rating [5, 20]: 0 | Nutsedge plant response rating [5, 21]: 0 | Nutsedge plant response rating [5, 22]: 0 | Plant response rating, Nutsedge [5, 23]: 0 | Nutsedge plant response rating [5, 24]: 0 | Ducksalad plant response rating [6, 25]: 0 | Ducksalad plant response rating [6, 26]: 0 | Plant response rating, Ducksalad [6, 27]: 0 | Ducksalad plant response rating [6, 28]: 0 | Velvetleaf plant response rating [7, 18]: 0 | Velvetleaf plant response rating (0 to 10 scale) [7, 19]: 0 | Velvetleaf plant response rating [7, 20]: 0 | Velvetleaf plant response rating [7, 21]: 0 | Plant response rating, Velvetleaf [7, 23]: 0 | Velvetleaf plant response rating [7, 24]: 3 | Redroot pigweed plant response rating [8, 17]: 0 | Redroot pigweed plant response rating [8, 18]: 0 | Redroot pigweed plant response rating (0 to 10 scale) [8, 19]: 0 | Redroot pigweed plant response rating [8, 20]: 5 | Redroot pigweed plant response rating [8, 21]: 6 | Redroot pigweed plant response rating [8, 22]: 0 | Plant response rating, Redroot pigweed [8, 23]: 0 | Redroot pigweed plant response rating [8, 24]: 5 | Rape plant response rating [9, 17]: 0 | Rape plant response rating [9, 18]: 0 | Rape plant response rating (0 to 10 scale) [9, 19]: 0 | Rape plant response rating [9, 21]: 4 | Rape plant response rating [9, 22]: 0 | Plant response rating, Rape [9, 23]: 0 | Rape plant response rating [9, 24]: 0 | Wild oats plant response rating [10, 18]: 0 | Wild oats plant response rating (0 to 10 scale) [10, 19]: 2 | Wild oats plant response rating [10, 20]: 4 | Wild oats plant response rating [10, 21]: 5 | Plant response rating, Wild oats [10, 23]: 0 | Wild oats plant response rating [10, 24]: 0 | Morningglory plant response rating [11, 17]: 1 | Morningglory plant response rating [11, 18]: 0 | Morningglory plant response rating (0 to 10 scale) [11, 19]: 0 | Morningglory plant response rating [11, 20]: 0 | Morningglory plant response rating [11, 21]: 0 | Morningglory plant response rating [11, 22]: 0 | Plant response rating, Morningglory [11, 23]: 2 | Morningglory plant response rating [11, 24]: 2 | Bedstraw plant response rating [12, 17]: 7 | Bedstraw plant response rating [12, 18]: 0 | Bedstraw plant response rating (0 to 10 scale) [12, 19]: 0 | Bedstraw plant response rating [12, 20]: 0 | Bedstraw plant response rating [12, 21]: 0 | Plant response rating, Bedstraw [12, 23]: 8 | Giant foxtail plant response rating [13, 17]: 0 | Giant foxtail plant response rating [13, 18]: 5 | Giant foxtail plant response rating (0 to 10 scale) [13, 19]: 7 | Giant foxtail plant response rating [13, 20]: 10 | Giant foxtail plant response rating [13, 21]: 10 | Giant foxtail plant response rating [13, 22]: 0 | Plant response rating, Giant foxtail [13, 23]: 0 | Giant foxtail plant response rating [13, 24]: 0 | Rice plant response rating [14, 25]: 0 | Rice plant response rating [14, 26]: 0 | Plant response rating, Rice [14, 27]: 0 | Rice plant response rating [14, 28]: 0 | Soybean plant response rating [15, 17]: 1 | Soybean plant response rating [15, 18]: 0 | Soybean plant response rating (0 to 10 scale) [15, 19]: 0 | Soybean plant response rating [15, 20]: 0 | Soybean plant response rating [15, 21]: 0 | Soybean plant response rating [15, 22]: 1 | Plant response rating, Soybean [15, 23]: 1 | Soybean plant response rating [15, 24]: 3 | Corn plant response rating [16, 17]: 0 | Corn plant response rating [16, 18]: 0 | Corn plant response rating (0 to 10 scale) [16, 19]: 0 | Corn plant response rating [16, 20]: 0 | Corn plant response rating [16, 21]: 0 | Corn plant response rating [16, 22]: 0 | Plant response rating, Corn [16, 23]: 0 | Corn plant response rating [16, 24]: 0
